Data taken from US9345691B2, “Beta-lactam compounds for enhancing T cell-mediated immune responses” (STEM CELL MEDICINE LTD., priority 2011, dated 2016).
Entries after “also recorded” stand apart in the source; their conditions may differ.

Tests used:
[1] = tested on: encephalitogenic BP10 T-cell line; assay: Adoptive EAE by BP10 line stimulated in vitro with test substance; format: in vivo, rat
Source text: The ability of a compound to enhance T cell activity may be determined, for example, using an in vivo assay testing the effect of a given compound on the severity of adoptive (passive) EAE, namely, EAE which is induced by the injection of activated encephalitogenic T cell line to the model animal. In order to test a compound, the encephalitogenic T cells are activated in the presence of the compound prior to injection. An exemplary procedure is described in the Examples section hereinbelow.
Antigen-specific T-cell lines were established from lymph node cells that had been stimulated with myelin basic protein (MBP; 10 μg/ml) for 3 days in stimulation medium as described below. Following stimulation, the T-cell blasts were isolated on Lympho-prep (Nycomed Pharma, Oslo, Norway) and seeded in propagation medium. Propagation medium was identical to stimulation medium without autologous serum, but supplemented with fetal calf serum 10% and T-cell growth factors from the supernatant of Con A stimulated spleen cells 10% (Mor et al. (1990) J Clin Invest, 85, 1594-1598). Animals were injected intra-peritoneally with 10^7 MBP-stimulated T cells, following 6-8 cycles of in vitro stimulations. It is known that MBP-reactive lines undergo a reduction in pathogenicity after 6 or more in vitro stimulations. In some experiments the BP10 line was stimulated with phorbol myristate acetate (PMA; 50 ng/ml) and ionomycin (500 ng/ml) for 3 days in stimulation medium, without antigen-presenting cells.
Active EAE was induced by subcutaneous injection of 25 μg guinea-pig MBP (GpMBP) in complete Freund's adjuvant (CFA). CFA was prepared by adding 4 mg/ml Mycobacterium tuberculosis H37Ra (Difco, Mich.) to incomplete Freund's adjuvant (IFA). Adoptive EAE was transferred by intra-peritoneal injection of guinea-pig MBP-activated cells of the BP10 line as described in Mor et al. (1993) J Clin Invest, 92, 2199-2206. […] Clinical scoring was: +1, paralysis of tail; +1.5, paresis of posterior paws and ataxia; +2, paraplegia; +3, paralysis extending to thoracic spine; +4, a moribund state.
Treatment with cefuroxime in vivo could affect many different host agents involved in EAE or AA as well as influencing the rats' bacterial flora. To test whether the antibiotic might directly modify the behavior of effector T cells, an encephalitogenic T-cell line was stimulated in the presence or absence of cefuroxime in vitro. The weakly encephalitogenic BP10 line was used, and was stimulated for 3 days with MBP in the presence or absence of cefuroxime (50 μg/ml). The activated T cells were then washed to remove the antibiotic, the T cells were injected intra-peritoneally into naïve recipient rats (10^7 per rat), and EAE was scored. The BP10 line at later stimulations was used, when its pathogenic potential is reduced, allowing to detect both suppression and enhancement of disease. […] To rule out antigen presenting cells (APC) as the target of the beta-lactam antibiotic, the encephalitogenic BP10 line was stimulated without APC using PMA (50 ng/ml) and Ionomycin (500 ng/ml) in the presence or absence of cefuroxime.

CD4+ human T cells = assay: Human Autoimmune and Inflammatory Response Gene Array, anti-CD3 stimulated T cells; format: cell-based; conditions: 120 min anti-CD3; for % decrease by Cef.: cefuroxime 50 μg/ml, ±SD, relative to control
Experimental: T cells were purified from the peripheral bloods of healthy human donors (Blood Bank, Sheba Medical center). The whole blood was incubated (20 min, 22° C.) with RosetteSep™ human T cell enrichment mixture (StemCell Technologies, Vancouver, Canada). The remaining unsedimented cells were then loaded onto lymphocyte separation medium (ICN Biomedicals, Irvine, Calif.), isolated by density centrifugation, and washed with PBS. […] In a second round of purification, CD3^+ T cells were labeled for selection with a magnetically coupled mAb against CD4 (Miltenyi Biotec, Auburn, Calif.).
Human CD4 T cells were isolated as described, and incubated in 24 well plates (Nunc), 4×10^6 cells/ml with plate bound anti-human CD3 (OKT3) at 2 μg/ml. The stimulation was performed in RPMI medium supplemented with 0.1% BSA. […] RNA was extracted from samples and used to prepare probes for gene array in accord with the manufacturer's instructions (SuperArray Bioscience, Frederick, Md.). Adequate labeling of the probes was tested before hybridization. Three healthy donors were tested in stimulation with cefuroxime. The membranes were analyzed online with the Image Data Acquisition and Expression Analysis (SuperArray Bioscience).
The Human Autoimmune and Inflammatory Response Gene Array (SuperArray Bioscience corporation, Frederick, Md., USA) was used for analysis of gene expression by the T cells. This array contains 367 genes including cytokines, chemokines and their receptors, transcription factors and signaling proteins. […] Analysis of the results was performed using the GEArray analysis program (www.SuperArray.com). […] To verify the results detected by the gene array study, a panel of six genes was designed and tested by real-time PCR: CCR4, ACVR2, JAK1, STAT4, TLR2 and NFKBIE. The cDNA that was used was prepared from the same RNA used for the gene array experiment.

CO/N=C(\C(=O)N[C@@H]1C(=O)N2C(C(=O)O)=C(COC(N)=O)CS[C@H]12)c1ccco1 [cefuroxime]
severity of adoptive EAE ([1]; BP10 line stimulated 3 days with MBP in presence of 50 μg/ml, 10^7 cells IP per rat): markedly enhanced the manifestations of EAE; also recorded: enhanced EAE severity; also recorded: enhances the pathogenicity of the BP10 line | severity of adoptive EAE ([1]; BP10 line stimulated without APC using PMA (50 ng/ml) and Ionomycin (500 ng/ml)): significantly more severe | severity of adoptive EAE ([1]; dose-response, BP10 line stimulated in presence of 5 μg/ml): ineffective | severity of adoptive EAE ([1]; dose-response, BP10 line stimulated in presence of 25 μg/ml): enhancing effect similar to that of 50 μg/ml | number of genes down-regulated (CD4+ human T cells; array of 367 genes, 50 μg/ml): Fifty-seven | % decrease by Cef. (CD4+ human T cells; gene ACTB): 49 ± 11% | % decrease by Cef. (CD4+ human T cells; gene ACVR1): 42 ± 0.7% | % decrease by Cef. (CD4+ human T cells; gene ACVR2): 60 ± 14.8% | % decrease by Cef. (CD4+ human T cells; gene CCL5): 21 ± 5.6% | % decrease by Cef. (CD4+ human T cells; gene CCL11): 18 ± 6.6% | % decrease by Cef. (CD4+ human T cells; gene CCR4): 39 ± 2% | % decrease by Cef. (CD4+ human T cells; gene CCR6): 53 ± 5.6% | % decrease by Cef. (CD4+ human T cells; gene CCR7): 38 ± 8.1% | % decrease by Cef. (CD4+ human T cells; gene CD28): 51 ± 2.1% | % decrease by Cef. (CD4+ human T cells; gene CD40LG): 33 ± 7.1% | % decrease by Cef. (CD4+ human T cells; gene CREB1): 19 ± 4.9% | % decrease by Cef. (CD4+ human T cells; gene CREBBP): 40 ± 9.9% | % decrease by Cef. (CD4+ human T cells; gene CXCL10): 39 ± 3% | % decrease by Cef. (CD4+ human T cells; gene EGR3): 38 ± 2.8% | % decrease by Cef. (CD4+ human T cells; gene GFI1): 45 ± 14% | % decrease by Cef. (CD4+ human T cells; gene HRAS): 30 ± 9.8% | % decrease by Cef. (CD4+ human T cells; gene IL1B): 54 ± 7.0% | % decrease by Cef. (CD4+ human T cells; gene IL2RB): 50 ± 9.9% | % decrease by Cef. (CD4+ human T cells; gene IL2RG): 57 ± 9.8% | % decrease by Cef. (CD4+ human T cells; gene IL9R): 27.5 ± 3% | % decrease by Cef. (CD4+ human T cells; gene IL16): 50 ± 7.8% | % decrease by Cef. (CD4+ human T cells; gene IRAK1): 44 ± 2.1% | % decrease by Cef. (CD4+ human T cells; gene JAK1): 53 ± 13.4% | % decrease by Cef. (CD4+ human T cells; gene JUN): 49 ± 2.2% | % decrease by Cef. (CD4+ human T cells; gene LTA): 17 ± 10% | % decrease by Cef. (CD4+ human T cells; gene MAP2K4): 52 ± 14.1% | % decrease by Cef. (CD4+ human T cells; gene MAP3K1): 53 ± 12% | % decrease by Cef. (CD4+ human T cells; gene MAP3K2): 36 ± 12% | % decrease by Cef. (CD4+ human T cells; gene MAP3K7): 46 ± 9.9% | % decrease by Cef. (CD4+ human T cells; gene MAPK9): 42 ± 10.9% | % decrease by Cef. (CD4+ human T cells; gene NFKB1): 43 ± 3.5% | % decrease by Cef. (CD4+ human T cells; gene NFKB2): 53 ± 10.6% | % decrease by Cef. (CD4+ human T cells; gene NFKBIE): 63 ± 11% | % decrease by Cef. (CD4+ human T cells; gene NFKBIL1): 54 ± 12.5% | % decrease by Cef. (CD4+ human T cells; gene PAK1): 40 ± 2.4% | % decrease by Cef. (CD4+ human T cells; gene PIN1): 45 ± 12.1% | % decrease by Cef. (CD4+ human T cells; gene RANBP5): 33 ± 3.5% | % decrease by Cef. (CD4+ human T cells; gene REL): 45 ± 1.9% | % decrease by Cef. (CD4+ human T cells; gene RFX5): 36 ± 4.2% | % decrease by Cef. (CD4+ human T cells; gene RFXAP): 27 ± 12% | % decrease by Cef. (CD4+ human T cells; gene SDF2): 28 ± 12% | % decrease by Cef. (CD4+ human T cells; gene SELL): 46 ± 7.0% | % decrease by Cef. (CD4+ human T cells; gene SMAD4): 47 ± 7.0% | % decrease by Cef. (CD4+ human T cells; gene SMAD7): 47 ± 4.2% | % decrease by Cef. (CD4+ human T cells; gene SP3): 39 ± 9.9% | % decrease by Cef. (CD4+ human T cells; gene SRF): 38 ± 1.9% | % decrease by Cef. (CD4+ human T cells; gene STAT1): 32 ± 11% | % decrease by Cef. (CD4+ human T cells; gene STAT4): 47 ± 9.3% | % decrease by Cef. (CD4+ human T cells; gene STAT6): 47 ± 7.9% | % decrease by Cef. (CD4+ human T cells; gene TGFBR3): 44 ± 3.5% | % decrease by Cef. (CD4+ human T cells; gene TGIF): 43 ± 3.5% | % decrease by Cef. (CD4+ human T cells; gene TLR2): 52 ± 14% | % decrease by Cef. (CD4+ human T cells; gene TNFRSF11A): 43 ± 2% | % decrease by Cef. (CD4+ human T cells; gene TNFα): 29 ± 8.5% | % decrease by Cef. (CD4+ human T cells; gene TRAF5): 43 ± 2.2% | % decrease by Cef. (CD4+ human T cells; gene TRAF6): 43 ± 3.5% | % decrease by Cef. (CD4+ human T cells; gene YY1): 23 ± 9.1%
